Measured values from patent US5364854A, “Derivatives of substituted imidazo benzoxazin-1-one and process for their preparation” (Farmitalia Carlo Erba S.r.l., priority 1992, dated 1994).
Where a name gives a salt, the structure may show the parent alone.

How the values were obtained:
5HT3 receptor [1] = target: T1, 5HT3 receptor (Rattus norvegicus, UniProt P35563); experiment: 5-HT3 binding affinity in rat entorhinal cortex using ^3 H-BRL 43694 (Granisetron); parameters: labelled in the entorhinal cortex of the rat brain; from tissue; host or cells: rat entorhinal cortex
T1 sequence (P35563 24-483): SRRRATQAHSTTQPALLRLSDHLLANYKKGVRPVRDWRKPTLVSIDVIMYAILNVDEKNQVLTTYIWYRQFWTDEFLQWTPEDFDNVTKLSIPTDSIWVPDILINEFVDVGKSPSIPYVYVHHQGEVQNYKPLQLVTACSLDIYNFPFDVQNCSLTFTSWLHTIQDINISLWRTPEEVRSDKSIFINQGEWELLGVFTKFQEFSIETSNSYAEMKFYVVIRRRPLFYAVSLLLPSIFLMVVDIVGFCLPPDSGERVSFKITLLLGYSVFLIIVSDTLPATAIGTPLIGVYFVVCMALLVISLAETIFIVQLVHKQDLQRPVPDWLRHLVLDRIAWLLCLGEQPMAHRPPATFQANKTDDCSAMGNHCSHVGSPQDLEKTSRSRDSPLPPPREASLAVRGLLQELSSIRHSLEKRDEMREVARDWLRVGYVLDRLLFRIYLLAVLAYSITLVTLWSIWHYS
Method: The affinity for serotonin 5-HT3 receptor was also assessed for instance in rat entorhinal cortex using the selective radioligand ^3 H-[…] as described by Nelson and Thomas (1989).
Nelson D. R. and Thomas D. R., [^3 H]-BRL 43694 (Granisetron), a specific ligand for 5-HT3 binding sites in rat brain cortical membranes Biochem. Pharmac. 38, 1693-1695, 1989.
The following Table III summarizes the data obtained in this in vitro test for a representative group of compounds of the invention in comparison with the known reference compounds MDL 72222 and Metoclopramide.
5-HT3 binding affinity ^b) for rat entorhinal cortex.
^(b) ^3 […] labelled 5HT3 sites

5-HT3 receptor = experiment: Inhibition of the binding of ^3 H-GR65630 to 5-HT3 sites in rat entorhinal cortex; conditions: ^3 H-GR 65630, rat entorhinal cortex, low (affinity site), two-site fit
Excerpt: (§1) The following Table II reports the data obtained in this in vitro test for a representative group of compounds of the invention in comparison with the known reference compounds MDL 72222 and Metoclopramide.
(§2) 5-HT3 binding affinity ^(a) for rat entorhinal cortex
(§3) ^(a) [^3 HGR 65630 labelled 5HT3 sites.
(§4) The tested compounds were able to interact with 5-HT3 -serotonin receptors labelled in the entorhinal cortex of the rat brain with ^3 H-GR 65630.

5HT3 receptor [2] = target: T1, 5HT3 receptor; experiment: as above; parameters: labelled in the entorhinal cortex of the rat brain; from tissue; host or cells: rat entorhinal cortex
Excerpt: as §1, §2, §3, §4

5HT3 receptor [3] = target: T1, 5HT3 receptor; experiment: Inhibition of the von Bezold-Jarisch chemoreflex evoked by 5-HT (20 μg/kg i.v.) in the anesthetised rat (in vivo 5HT3 antagonist activity); parameters: chemoreflex evoked by 5-HT in the anesthetised rat; from tissue; host or cells: anaesthetised rat in vivo (own knowledge: 5-HT3 receptors on cardiac vagal afferents); conditions: anesthetized rat; for % Inhibition: mean ± S.E.M.; for ED50: iv, limits in parentheses on the following line
Method: Pharmacol. 326, 36-44 (1984).
The following Table I reports the in vivo 5HT3 antagonist activity data obtained in this test for the representative compounds of the invention 2,3,3a,4-tetrahydro-2-(1-azabicyclo [2.2.2]oct-3-yl)-8-chloro-1H-imidazo[5,1-c][1,4]benzoxazin-1-one hydrochloride (internal code FCE 26781);
Inhibition of the Bezold-Jarisch reflex elicited by 5-HT (20
μg/kg i.v.) by i.v. FCE compounds in the anesthetized rat.
Values are mean ± S.E.M. from N animals

[4] = ^3 H-GR 65630, rat entorhinal cortex, high (affinity site), only Ki where one-site fit, read-out: Ki high
[5] = ^3 H-BRL 43694 labelled 5HT3 sites, rat entorhinal cortex, read-out: Ki

CN1C2CCC1CC(OC(=O)c1cc(Cl)cc(Cl)c1)C2 (stereo not shown) [MDL 72222, reference compound]
Ki (5HT3 receptor [1]): 23 nM

CN1C2CCCC1CC(N1CC3COc4ccccc4N3C1=O)C2 (stereo not drawn) [FCE 26963, (endo)-2,3,3a,4-tetrahydro-2-(9-methyl-9-azabicyclo[3.3.1]non-3-yl)-1H-imidazo[5,1-c][1,4]benzoxazin-1-one hydrochloride]
Ki (5-HT3 receptor): 72000 nM | Ki (5HT3 receptor [2]; [4]): 151 nM | Ki (5HT3 receptor [1]; [5]): 170 nM | % Inhibition (5HT3 receptor [3]; 100 μg/kg i.v., N=3-7): 27.1 ± 10.7%

CN1C2CCC1CC(N1CC3COc4ccc(Cl)cc4N3C1=O)C2 (stereo not drawn) [FCE 26783, (endo)-2,3,3a,4-tetrahydro-8-chloro-2-(8-methyl-8-azabicyclo [3.2.1]oct-3-yl)-1H-imidazo[5,1-c][1,4]benzoxazin-1-one hydrochloride]
Ki (5HT3 receptor [2]; [4]): 400 nM | Ki (5HT3 receptor [1]): 30 nM | % Inhibition (5HT3 receptor [3]; 100 μg/kg i.v., N=3-7): 30.9 ± 6.0%

CN1C2CCCC1CC(N1CC3COc4ccc(Cl)cc4N3C1=O)C2 (stereo not drawn) [FCE 26785, (endo)-2,3,3a,4-tetrahydro-8-chloro-2-(9-methyl-9-azabicyclo[3.3.1]non-3-yl)-1H-imidazo[5,1-c][1,4]benzoxazin-1-one hydrochloride]
Ki (5-HT3 receptor): 600 nM | Ki (5HT3 receptor [2]): 9.79 nM | Ki (5HT3 receptor [1]; [5]): 310 nM

CCN(CC)CCNC(=O)c1cc(Cl)c(N)cc1OC [Metoclopramide, reference compound]
Ki (5HT3 receptor [1]): 490 nM

Cl.O=C1N(C2CN3CCC2CC3)CC2COc3ccccc3N12 (stereo not shown) [FCE 26962, 2,3,3a,4-tetrahydro-2-(1-azabicyclo[2.2.2]oct-3-yl)-1H-imidazo [5,1-c][1,4]benzoxazin-1-one hydrochloride]
Ki (5-HT3 receptor): 14000 nM | Ki (5HT3 receptor [2]): 9.74 nM | Ki (5HT3 receptor [1]): 0.4 nM | % Inhibition (5HT3 receptor [3]; 100 μg/kg i.v., N=3-7): 86.4 ± 1.8% | ED50 (5HT3 receptor [3]): 0.0263 mg/kg

Cl.O=C1N(C2CN3CCC2CC3)CC2COc3ccc(Cl)cc3N12 (stereo not shown) [FCE 26781, 2,3,3a,4-tetrahydro-2-(1-azabicyclo [2.2.2]oct-3-yl)-8-chloro-1H-imidazo[5,1-c][1,4]benzoxazin-1-one hydrochloride]
Ki (5-HT3 receptor): 1900 nM | Ki (5HT3 receptor [2]): 2.61 nM | Ki (5HT3 receptor [1]): 13 nM | % Inhibition (5HT3 receptor [3]; 50 μg/kg i.v., N=6): 29.50 ± 6.34% | % Inhibition (5HT3 receptor [3]; 150 μg/kg i.v., N=6): 50.38 ± 5.45% | % Inhibition (5HT3 receptor [3]; 450 μg/kg i.v., N=6): 90.38 ± 2.80% | ED50 (5HT3 receptor [3]): 0.112 mg/kg

CN1C2CCC1CC(N1CC3COc4ccccc4N3C1=O)C2 (stereo not drawn) [FCE 26878, (endo)-2,3,3a,4-tetrahydro-2-(8-methyl-8-azabicyclo[3.2.1]oct-3-yl)-1H-imidazo[5,1-c][1,4]benzoxazin-1-one, hydrochloride]
Ki (5HT3 receptor [2]): 70 nM | Ki (5HT3 receptor [1]): 9 nM | % Inhibition (5HT3 receptor [3]; 100 μg/kg i.v., N=3-7): 85.8 ± 1.7% | ED50 (5HT3 receptor [3]): 0.0138 mg/kg
